Data: patent US7741280B2, “Multimeric molecules, the preparation method thereof and use of same for the preparation of medicaments” (Centre National de la Recherche Scientifique, priority 2002, dated 2010)
Read-outs that look alike come from different tables or passages of the source. Each block holds one molecule with its values, some of them ahead of it. Where a SMILES comes first, the peptide text is derived from it. Bridges are numbered along the chain shown (N, C = ends). Roman numbers before positions name the chains, in order. Where no end group is shown, it is not given here. Side-chain parts run from the residue outwards. [ ]: non-standard residue; d: D form. Ahx = NCCCCCC(=O)O

How the values were obtained:
[1] = target: T1, CD40-CD40L interaction (Homo sapiens, UniProt P25942); experiment: Expression of CD95 induced by CD40L on BL41 cells cultured with 3T6-CD40L fibroblasts (flow cytometry); type: cell-based; conditions: for % of inhibition of the expression of CD95 induced by CD40L: BL41 + 3T6-CD40L, 48 hours
T1 construct: they receive a signal via the CD40 molecule, which they express in a constitutive manner; endogenous in cells; host or cells: BL41 Burkitt's lymphoma cells (endogenous CD40), co-cultured with 3T6 fibroblasts transfected with CD40L
Experimental: Then, the affinity of these ligands for the CD40 molecule is evaluated using a biosensor (BIAcore™). The agonist or antagonist effect of the ligands was tested using two simple biological tests. In the first, the expression of the membranous molecule CD95 by transformed B cells (Burkitt's lymphoma) is studied after activation by the CD40-CD40L interaction (Schattner et al., 1996). In such a model, the CD40L partner is expressed on transfected fibroblasts (3T6-CD40L) (Buelens et al., 1997). The BL41 Burkitt's lymphoma cells are incubated with non-transfected 3T6 fibroblasts (FIGS. 3A and 3C) or with 3T6 fibroblasts transfected by CD40L (FIGS. 3B and 3D). After 48 hours, the expression of CD95 is evaluated by flow cytometry. The expression of CD95 is induced in the presence of CD40L (FIG. 3B). A commercial anti-CD40L antibody inhibits the consequences of the CD40-CD40L interaction (FIG. 3D).
The antagonist effect is evaluated by measurement of the decrease in the expression of CD95 induced by the CD40L in the presence of the different chemical ligands (see Table I). With the help of these tests, the most interesting ligands are chosen to evaluate their activity in vivo and in vitro in more complex models.
The lymphoma B cells express the CD95 molecule when they receive a signal via the CD40 molecule, which they express in a constitutive manner. This signal is generally conveyed by the CD40L (CD154) molecule expressed by another cell. The antagonist ligands inhibit the binding of CD40 on CD40L and thus […] the expression of CD95. The agonist ligands copy the CD40L molecule and induce the expression of CD95 even in the absence of the cell expressing CD40L.
The BL41 Burkitt's lymphoma cells (5.10^5/ml) are cultured in the presence of 3T6 fibroblasts (10^5/ml) transfected (3T6-CD40L) or not transfected with CD40L (3T6), and treated with mitomycin to stop their proliferation. The ligands are added at the start of the culture at the chosen concentration. After culture for 48 hours, expression of the CD95 molecule is measured by flow cytometry. The BL41 cells are distinguished from the fibroblasts using an anti-CD19 antibody (specific marker of the B cells).

[2] = target: T2, human CD40 muIg fusion protein (UniProt P01863+P25942); experiment: Biacore3000 surface plasmon resonance study of the CD40/CD40L interaction and the ligands; type: binding
T2 construct: purchased ANCELL Corporation, Bayport, Minn
Description: The Biacore3000 is a device which allows the interactions between two molecules to be studied, based on the surface plasmon resonance. It allows measurement in real time, and therefore allows the kinetics of interaction (association and disassociation) of an analyte (which is in an injected solution) and of a ligand (immobilised on a microchip supporting the measurement) to be monitored. The kinetic measurements at different concentrations of analyte allow calculation of the affinity constants of the interaction between the ligand and the analytes. The microchip contains four cells for different measurements, which allows direct comparison of a reference cell on which a protein which is not pertinent (protein which has no affinity with the ligand studied), but close to the ligand is immobilised with the cell on which the ligand is immobilised.
Rabbit antibodies directed against the constant region of mouse immunoglobulins were immobilized on a microchip. In the reference cell a monoclonal mouse antibody of isotype IgG2a (LG112) at 40 nM is immobilized with a flow of 5 μL/min for 2 minutes; in the cell of the ligand the recombinant CD40 associated with the constant region of the mouse IgG2a heavy chain (human CD40 muIg fusion protein, ANCELL Corporation, Bayport, Minn.) is immobilized under the same conditions.
On the two cells (reference and ligand), the CD40L (human CD154 muCD8 fusion protein, ANCELL Corporation) at different concentrations or the CD40L at a concentration of 1 μM or of 125 nM, are injected, as analyte, in the presence of different concentrations of ligands. The flow in the presence of the analytes is 10 μL/min for 5 minutes to study the association and, in the absence of analytes, the conditions are the same to study the dissociation.
In order to regenerate the cells (i.e. remove all the proteins adsorbed in a non-covalent manner), a solution of 10 mM of HCl is injected at 5 μL/min for 1 minute. The cells are then ready for another analysis.

[3] = system: BL41 Burkitt's lymphoma cells; experiment: Inhibition of proliferation of BL41 cells (incorporation of tritiated thymidine); type: cell-based; conditions: 24 hours culture, FIG. 4A, 50 μM to 50 nM
Experimental: Tritiated thymidine was added at a concentration of 1 μci/well (0.8.10^5 cells/well) for the last 8 hours of culture and the incorporation of tritiated thymidine measured using a gaseous scintillation β counter.
The second test is based on the property of certain B lymphomas to cease proliferation and enter apoptosis during the bridging of their membranous CD40 molecule (Tong et al., 1999). In this test, the BL41 cells are incubated with ligands CD40 and after 24 hours either the inhibition of proliferation of these cells is measured, by studying the incorporation of tritiated thymidine, or the percentage of apoptotic cells is measured with a flow cytometry study (FIGS. 4A and 4B).
Certain B lymphomas enter apoptosis when their CD40 molecule is bridged by an anti-CD40 antibody or by CD40L which is soluble independently from the CD95 molecule. This induction of apoptosis is expressed as a decrease in proliferation measured by the incorporation of tritiated thymidine. The agonist ligands of CD40 will induce an increase in apoptosis and as a result a decrease in the incorporation of tritiated thymidine.
The BL41 Burkitt's lymphoma cells (4.10^5/mL) are cultured in the presence of the different ligands at the chosen concentration. After 24 hours, the cells are either incubated for 8 hours with tritiated thymidine (1 μci/well) to measure the proliferation or are labelled with Annexin V-FITC and propidium iodide to evaluate the percentage of apoptotic cells with flow cytometry.

[4] = target: CD40 molecule expressed constitutively by BL41 Burkitt's lymphoma cells (UniProt P25942); experiment: cell-based or functional assay
Chain of CD40 molecule expressed constitutively by BL41 Burkitt's lymphoma cells (P25942 21-277 limits assumed): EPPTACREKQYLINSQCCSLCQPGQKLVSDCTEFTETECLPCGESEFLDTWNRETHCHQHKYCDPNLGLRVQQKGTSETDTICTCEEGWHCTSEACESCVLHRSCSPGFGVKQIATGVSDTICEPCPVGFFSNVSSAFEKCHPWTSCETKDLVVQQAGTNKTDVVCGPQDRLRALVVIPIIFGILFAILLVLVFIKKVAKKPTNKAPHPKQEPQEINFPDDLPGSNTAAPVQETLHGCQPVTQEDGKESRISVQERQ

T2 sequence (P25942+P01863 fused): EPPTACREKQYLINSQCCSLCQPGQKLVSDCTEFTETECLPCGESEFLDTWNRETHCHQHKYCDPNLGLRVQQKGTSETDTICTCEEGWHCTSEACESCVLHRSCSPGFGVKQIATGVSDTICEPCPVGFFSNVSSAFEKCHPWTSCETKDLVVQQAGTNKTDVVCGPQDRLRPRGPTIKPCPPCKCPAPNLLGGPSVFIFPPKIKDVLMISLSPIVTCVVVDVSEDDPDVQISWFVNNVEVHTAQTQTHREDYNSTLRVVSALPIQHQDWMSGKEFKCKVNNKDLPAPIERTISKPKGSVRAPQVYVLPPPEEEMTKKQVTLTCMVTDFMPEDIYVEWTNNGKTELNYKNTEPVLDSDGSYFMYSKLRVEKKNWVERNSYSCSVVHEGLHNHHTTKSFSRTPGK
T1 sequence (P25942 21-277): as the sequence (P25942 21-277 limits assumed) above

Molecule: C[C@H](NC(=O)[C@H](CCCCNC(=O)[C@H](CCCCNC(=O)[C@H](CCCCNC(=O)[C@H](CCCCNC(=O)[C@H](CCCNC(=N)N)NC(=O)[C@@H]1CCCN1C[C@@H](N)CCCCN)NC(=O)[C@H](CCCNC(=N)N)NC(=O)[C@@H]1CCCN1C[C@@H](N)CCCCN)NC(=O)[C@H](CCCNC(=N)N)NC(=O)[C@@H]1CCCN1C[C@@H](N)CCCCN)NC(=O)[C@H](CCCNC(=N)N)NC(=O)[C@@H]1CCCN1C[C@@H](N)CCCCN)NC(=O)[C@H](CCCNC(=N)N)NC(=O)[C@@H]1CCCN1C[C@@H](N)CCCCN)C(=O)O [L1]
% of inhibition of the expression of CD95 induced by CD40L ([1]; ligand 25 μM): 0%
% of inhibition of the expression of CD95 induced by CD40L ([1]; ligand 50 μM): 43%
% of inhibition of the expression of CD95 induced by CD40L ([1]; ligand 100 μM): 60%
Kd ([2]; analyte CD40L at 1 μM and L1 at 50 μM, read-out: equilibrium constant): > 50000 nM

Molecule: L7-2: L7 analogue with the reverse sequence H-Tyr-Tyr-Gly-Lys- (YYGK)
inhibition of the proliferation of BL41 cells (in words) [3]: only have a small or no effect

Molecule: L12: from linear 8-B core coupled with pentapeptide 1-A; linear version of L9 (chain Lys-Lys-Lys; peptide KGYY; not fully specified (some residues, C-terminus); also: peptide (pentapeptide 1-A) coupled to linear core 8-B, linkage and core structure not given here)
binding to CD40 and displacement of CD40L (in words) ([2]; in the presence of 100 nM of CD40L): Only the L4 and L9 molecules bind to CD40

Molecule: CC(=O)NCCCC[C@H](NC(C)=O)C(=O)NCCCCC(NC(C)=O)C(=O)NCCCC[C@H](NC(C)=O)C(=O)NCCCC[C@H](NC(C)=O)C(=O)N[C@@H](C)C(=O)O (stereo partly shown) [L2]
effect on the expression of CD95 induced by CD40L (in words) ([1]; BL41 cells in the presence of 3T6-CD40L cells, no concentration stated): no effect
% of inhibition of the expression of CD95 induced by CD40L ([1]; ligand 25 μM): 0%
% of inhibition of the expression of CD95 induced by CD40L ([1]; ligand 50 μM): 0%
% of inhibition of the expression of CD95 induced by CD40L ([1]; ligand 100 μM): 0%

Molecule: C[C@H](NC(=O)[C@H](CCCCNC(=O)[C@H](CCCCNC(=O)[C@H](CCCCNC(=O)[C@H](CCCCNC(=O)[C@H](Cc1ccc(O)cc1)NC(=O)[C@H](Cc1ccc(O)cc1)NC(=O)CNC(=O)[C@@H](N)CCCCN)NC(=O)[C@H](Cc1ccc(O)cc1)NC(=O)[C@H](Cc1ccc(O)cc1)NC(=O)CNC(=O)[C@@H](N)CCCCN)NC(=O)[C@H](Cc1ccc(O)cc1)NC(=O)[C@H](Cc1ccc(O)cc1)NC(=O)CNC(=O)[C@@H](N)CCCCN)NC(=O)[C@H](Cc1ccc(O)cc1)NC(=O)[C@H](Cc1ccc(O)cc1)NC(=O)CNC(=O)[C@@H](N)CCCCN)NC(=O)[C@H](Cc1ccc(O)cc1)NC(=O)[C@H](Cc1ccc(O)cc1)NC(=O)CNC(=O)[C@@H](N)CCCCN)C(=O)O [L3] (I: H-KGYYKA-OH / II: H-KGYYK([Tyr-Tyr-Gly-Lys]) / III: H-KGYYK / IV: H-KGYYK; amide I:5-IV:C, II:C-III:5, III:C-IV:5)
% of inhibition of the expression of CD95 induced by CD40L ([1]; ligand 5 μM): 0%
% of inhibition of the expression of CD95 induced by CD40L ([1]; ligand 10 μM): 13%
% of inhibition of the expression of CD95 induced by CD40L ([1]; ligand 25 μM): 25%
% of inhibition of the expression of CD95 induced by CD40L ([1]; ligand 50 μM): 62%
% of inhibition of the expression of CD95 induced by CD40L ([1]; ligand 100 μM): 60%

IC50 ([2]; in the presence of 100 nM of CD40L, read-out: inhibition of 50% of the binding of CD40L (IC50)): < 50 nM
equilibrium constant compared with L4 ([2]; inferred from IC50, same conditions as L4): less than that of L4
Molecule: NCCCC[C@H](N)C(=O)NCC(=O)N[C@@H](Cc1ccc(O)cc1)C(=O)N[C@@H](Cc1ccc(O)cc1)C(=O)NCCCCCC(=O)NCCCC[C@H]1CC(=O)N[C@@H](CCCCNC(=O)CCCCCNC(=O)[C@H](Cc2ccc(O)cc2)NC(=O)[C@H](Cc2ccc(O)cc2)NC(=O)CNC(=O)[C@@H](N)CCCCN)CC(=O)N[C@@H](CCCCNC(=O)CCCCCNC(=O)[C@H](Cc2ccc(O)cc2)NC(=O)[C@H](Cc2ccc(O)cc2)NC(=O)CNC(=O)[C@@H](N)CCCCN)CC(=O)N1 [L9]

Molecule: L7-3: L7 analogue: replacement of the aminohexanoic acid spacer arm by a glycine (KGYYG; not fully specified (C-terminus); also: L7 analogue: aminohexanoic acid spacer replaced by glycine, core as L7)
inhibition of the proliferation of BL41 cells (in words) [3]: only have a small or no effect

% of inhibition of the expression of CD95 induced by CD40L, ligand at 25 µM [4]: 0%
% of inhibition of the expression of CD95 induced by CD40L, ligand at 50 µM [4]: 0%
% of inhibition of the expression of CD95 induced by CD40L, ligand at 100 µM [4]: 0%
B1: Compound L2 (ligand L2), core structure of the ligands L1 and L3 (peptide)
chain: KKKKA
modifications: also: four Lys joined through epsilon-amines (isopeptide bonds), free amine groups acetylated

% of inhibition of the expression of CD95 induced by CD40L, ligand at 0.5 µM [4]: 0%
% of inhibition of the expression of CD95 induced by CD40L, ligand at 5 µM [4]: 8%
% of inhibition of the expression of CD95 induced by CD40L, ligand at 50 µM [4]: 13%
B2: Compound L4a (ligand L4a): same core molecule as L4 with only 2 examples of the peptide sequence (peptide)
chain: [dA]K[dA]K[dA]K
peptide: H-KGYY[Ahx]
modifications: also: two copies of chain 2 linked via Ahx to epsilon-amines of two core Lys, which Lys not given here, further groups not given here, head-to-tail to a chain's N/C-terminus

Kd ([2]; 4 concentrations of CD40L from 62.5 to 500 nM, read-out: equilibrium constant of CD40L for CD40): 54 nM
B3: CD40L: human CD154 muCD8 fusion protein, ANCELL Corporation (protein)
chain: KPQAPELRIFPKKMDAELGQKVDLVCEVLGSVSQGCSWLFQNSSSKLPQPTFVVYMASSHNKITWDEKLNSSKLFSAMRDTNNKYVLTLNKFSKENEGYYFCSVISNSVMYFSSVVPVLQKVNSTTTKPVLRTPSPVHPTGTSQPQRPEDCRPRGSVKGTGLDFACDIYHRRLDKIEDERNLHEDFVFMKTIQRCNTGERSLSLLNCEEIKSQFEGFVKDIMLNKEETKKENSFEMQKGDQNPQIAAHVISEASSKTTSVLQWAEKGYYTMSNNLVTLENGKQLTVKRQGLYYIYAQVTFCSNREASSQAPFIASLCLKSPGRFERILLRAANTHSSAKPCGQQSIHLGGVFELQPGASVFVNVTDPSQVSHGTGFTSFGLLKL
